Data set [1] has as its system HIF1-alpha. Briefly: Measurement of the stabilization of HIF1-alpha in HEKEA cells (beta-galactosidase complementation). The class given is cell-based, human. Conditions: HEKEA_HIF1-alphaPLBL cells, 6 hours under normoxia, luminescence; molar concentration that produces 50% of the maximum response of this same compound. The text has this:
Furthermore, a subject of the invention is also a uniform test for the direct measurement by beta-galactosidase complementation of the amount of HIF1-alpha protein in the nucleus of cells, preferably HEK cells, after treating the said cells with one or more test compounds, which consists in: • (a) inoculating, preferably in 384-well plates, the said cells in a suitable culture medium, preferably 1% foetal calf serum (abbreviated as FCS); • (b) adding the test compound(s) at a suitable concentration in a suitable solvent to the cells previously inoculated in the said culture medium; preferably the test compounds are diluted in 0.1% FCS; • (c) incubating the said cells thus prepared in an indicator at about 37° C., advantageously for about 6 hours; • (d) lysing the cells with a lysis buffer containing a chemiluminescent substrate for beta-galactosidase; • (e) incubating in the absence of light, before reading and measuring the luminescence, which is a function of the beta-galactosidase activity.
The test is a cell test based on the principle of enzyme complementation, the enzyme used herein being beta-galactosidase. HEKEA cells are HEK cells stably expressing, and restricted in their nucleus, mutant beta-galactosidase (omega fragment, also known as EA) (line sold by DiscoverX). This construct makes it possible to obtain beta-galactosidase activity only when the protein comprising the Prolabel complementation fragment has migrated into the nucleus.
The protein of interest comprising the Prolabel fragment is in this case an HIF1-alpha or HIF1-alpha mutated at the two prolines 402 and 564 replaced with alanines, is C-terminal fused via molecular biology (DiscoverX vector sold by Clontech) with the small complementation peptide fragment (Prolabel or ED, about 4 kDa). The vector coding for the chimeric protein HIF1-alpha_Prolabel is then transfected into HEKEA cells to obtain stable clones (HEKEA_HIF1-alphaPLBL).
The amount of C-terminal Prolabel-“labelled” HIF1-alpha protein obtained after treating the cells to hypoxia or compounds that are potentially HIF activators is measured by adding to the cells a lysis buffer containing a chemiluminescent substrate for beta-galactosidase.
The measurement of the beta-galactosidase activity will be proportional to the amount of Prolabel and thus of HIF1-alpha that has migrated into the nucleus of the cells.
1.3.1 Experiment Plan • 1) Inoculation of the cells on D0 • 2) Adherence for 24 hours under normoxia • 3) Preparation and addition of the products (Biomek 2000 and FX) on D+1 • 4) Incubation under normoxia for 6 hours • 5) Reading of the plates (by luminescence)
The cells are inoculated with Multidrop in white, opaque-bottomed 384-well plates (Greiner ref 3704), in 30 μl of culture medium (1% FCS) a 10000 cells/well (cell plate).
The test products are prepared at 3×10^−2 M in 100% DMSO and then diluted to 3×10^−4 M in medium containing 0.1% FCS (10 μl in 990 μl of MEM). They are then deposited by hand into column 12 of a round-bottomed 96-well plate (200 μl of each compound) known as the dilution plate (dl). The complete DL plate of 3×10^−4 M to 10^−9 M is then prepared with Biomek 2000 (programme: range of 10 points in series). For the references and controls, 100 μl of DMEM containing 0.1% FCS are added to column 1, 100 μl of Deferoxamine 10^−3M to column 2, wells A B C D and 100 μl of Deferoxamine 5×10^−3 M to column 2, wells E F G H.
3.3 μL are taken from the DL plate by pipetting with a Biomek FX 96 and placed in horizontal duplicate (columns 1 to 24) in each 384-well cell plate (HEKEA_HIF1-alphaPLBL cell plate).
The cells are then placed for 6 hours in an incubator at 37° C. (ambient O2, 6% CO2).
The kit used is the Prolabel chemiluminescent kit (Ref 93-0001 DiscoverX). […]

The test system of data set [2] is VEGF. As to the kind of experiment: Measurement of the secretion of VEGF by Hep3B hepatocytes (ELISA). The class given is cell-based. The conditions noted are these: Homo sapiens, supernatant of Hep3B cells, 18 hours under normoxia, concentration that produces 50% of the maximum response of this same compound. On the procedure:
(§1) The test is an ELISA test for measuring VEGF and EPO in the supernatant of Hep3B cells treated under hypoxia or with deferoxamine as controls or with the potential HIF activators. The test was adapted to a 96-well plate, allowing greater compound screening capacity.
(§2) 2.3.1 Experiment Plan • 1) Inoculation of the cells on D0 • 2) Adherence for 6 hours under normoxia • 3) Preparation and addition of the products (Biomek 2000 and FX) • 4) Incubation under normoxia for 18 hours • 5) EPO and VEGF assay in the supernatant on D+1
(§3) The cells are subcultured into 100 μl of culture medium (10% FCS) in black, opaque-bottomed 96-well plates (reference Costar 3916) at 30000 cells/well, with Multidrop.
(§4) The test products are prepared at 10^−2M in 100% DMSO and then diluted to […] in medium containing 0.1% FCS (6 μl in 194 μl of MEM). 200 μl of each compound are deposited in column 12 of a 96-well plate. Dilution ranges from 3×10^−4M to 3×10^−8M are prepared with Biomek 2000 (programme: range of 9 points in series). 100 μl of MEM 0.1% FCS and Deferoxamine 5×10^−3M are added as controls to column 3 and, respectively, to wells A,B,C,D & wells E,F,G,H
(§5) The medium of the cells inoculated the day before into 96-well plates is changed for 90 μl of medium containing 0.1% FCS and 10 μl are distributed with FX 96 from the 96-well DL plates to the cell plates.
(§6) The cell plates thus treated are placed for 18 hours in an incubator at 37° C. (ambient O2, 6% CO2).
(§7) The supernatants (80 μl) of the Hep3B cells in the 96-well plates treated with the potential HIF activators are recovered with a multichannel pipette for simultaneous assay of the VEGF and the EPO by ELISA according to the supplier's instructions (Kit EPO Mesoscale (ref K15122B-2)).
(§8) The activating activity of a compound with respect to HIF is given by the concentration that produces 50% of the maximum response of this same compound in Table IV.
(An ELISA detects its analyte on a solid surface through an enzyme-linked reagent.)

Data set [3] has as its system EPO. As to the kind of experiment: Measurement of the secretion of EPO by Hep3B hepatocytes (ELISA). The class given is cell-based. The conditions noted are these: Homo sapiens, supernatant of Hep3B cells, 18 hours under normoxia, concentration that produces 50% of the maximum response of this same compound. On the procedure:
as §1, §2, §3, §4, §5, §6, §7, §8

SMILES strings stand for the structures. pEC50: −log10 of the molar value.

In the case of `CCc1ccnc(-n2[nH]c3c(c2=O)CSC3)c1` [Compound 61, sodium 2-(4-ethylpyridin-2-yl)-2,6-dihydro-4H-thieno[3,4-c]pyrazol-3-olate], the pEC50 (commonly −log10 of the EC50, conventionally taken in molar units) in data set [1] was 5.72; in data set [2], 5.55; in data set [3], 5.66.

Regarding `CCN(c1ccccc1)S(=O)(=O)c1ccc(-n2[nH]c3c(c2=O)CN(C(C)=O)CC3)nc1` [Compound 29, 6-(5-acetyl-3-oxo-1,3,4,5,6,7-hexahydro-2H-pyrazolo[4,3-c]pyridin-2-yl)-N-ethyl-N-phenylpyridine-3-sulfonamide], the melting point (usually the temperature of the solid-liquid transition) turned out to be 118 °C. In data set [1], the pEC50 was 5.60. In addition, in data set [2], the pEC50 is 5.59. In addition, the negative-log EC50 (pEC50) in data set [3] is 5.60.

As to `COc1ccnc(-n2[nH]c3c(c2=O)CSC3)c1` [Compound 59, 2-(4-methoxypyridin-2-yl)-1,2,4,6-tetrahydro-3H-thieno[3,4-c]pyrazol-3-one], the melting point came to 254 °C. In addition, in data set [2], the pEC50 was 5.51. In data set [3], this compound had a negative-log EC50 (pEC50) of 5.59.

In the case of `CCN(c1ccccc1)S(=O)(=O)c1ccc(-n2nc3c(c2O)N(Cc2ccccc2)C(=O)CC3)nc1` [Compound 35, sodium 4-benzyl-2-{5-[ethyl(phenyl)sulfamoyl]pyridin-2-yl}-5-oxo-4,5,6,7-tetrahydro-2H-pyrazolo[4,3-b]pyridin-3-olate], the pEC50 in data set [1] is 5.60; in data set [2], 5.96; in data set [3], 5.77.

`CC(C)NS(=O)(=O)c1ccc(-n2[nH]c3c(c2=O)CSC3)nc1` [Compound 17, 6-(3-oxo-4,6-dihydro-1H-thieno[3,4-c]pyrazol-2(3H)-yl)-N-(propan-2-yl)pyridine-3-sulfonamide]: the melting point was determined as 258 °C. For the same compound, in data set [1], the negative logarithm of the EC50 (pEC50) was 5.00. Besides, the pEC50 in data set [2] was 5.54. Further, the pEC50 in data set [3] was 5.54.

Regarding `CC(C)(C)NS(=O)(=O)c1ccc(-n2[nH]c3c(c2=O)CSC3)nc1` [Compound 18, N-tert-butyl-6-(3-oxo-4,6-dihydro-1H-thieno[3,4-c]pyrazol-2(3H)-yl)pyridine-3-sulfonamide], the melting point was found to be 257 °C. In addition, the pEC50 in data set [1] was 5.36. In addition, in data set [2], the pEC50 is 6.40. For the same compound, the pEC50 in data set [3] is 6.30.

In the case of `O=c1c2c([nH]n1-c1ccc(S(=O)(=O)NC3CC3)cn1)CSC2` [Compound 16, N-cyclopropyl-6-(3-oxo-4,6-dihydro-1H-thieno[3,4-c]pyrazol-2(3H)-yl)pyridine-3-sulfonamide], the melting point stood at 262 °C. The compound further had a pEC50 in data set [1] of 5.07. Besides, the pEC50 in data set [2] was 5.52. In addition, the pEC50 in data set [3] is 5.46.

`CN(c1ccccn1)S(=O)(=O)c1ccc(-n2[nH]c3c(c2=O)CSC3)nc1` [Compound 21, N-methyl-6-(3-oxo-4,6-dihydro-1H-thieno[3,4-c]pyrazol-2(3H)-yl)-N-pyridin-2-ylpyridine-3-sulfonamide] gave a melting point of 226 °C. The compound also had a pEC50 in data set [1] of 5.06. In addition, the pEC50 in data set [2] is 5.62. This compound showed a pEC50 in data set [3] of 5.85.

The compound `CCN(c1ccccc1)S(=O)(=O)c1ccc(-n2[nH]c3c(c2=O)CSCC3)nc1` [Compound 13, N-ethyl-6-(3-oxo-1,4,6,7-tetrahydrothiopyrano[4,3-c]pyrazol-2(3H)-yl)-N-phenylpyridine-3-sulfonamide] yielded a melting point of 176 °C. Also, the negative logarithm of the EC50 (pEC50) in data set [1] was 5.28. In data set [2], this compound had a pEC50 of 6.00. In addition, the pEC50 in data set [3] was 6.05.

In turn, `O=c1c2c([nH]n1-c1ccc(S(=O)(=O)NC3CCCC3)cn1)CSC2` [Compound 20, N-cyclopentyl-6-(3-oxo-4,6-dihydro-1H-thieno[3,4-c]pyrazol-2(3H)-yl)pyridine-3-sulfonamide] had a melting point greater than 260 °C. This compound showed a pEC50 in data set [1] of 5.47. The same compound gave a pEC50 in data set [2] of 6.05. The compound further showed a pEC50 in data set [3] of 6.00.

Compound `O=c1c2c([nH]n1-c1ccccn1)CSC2` [Compound 1, 2-pyridin-2-yl-1,2,4,6-tetrahydro-3H-thieno[3,4-c]pyrazol-3-one] registered a melting point of 152 °C. In data set [1], the pEC50 is 5.06. In data set [2], this compound gave a pEC50 of 5.52. In data set [3], the pEC50 is 5.54.

As to `CN(C(C)(C)C)S(=O)(=O)c1ccc(-n2nc3c(c2O)CSC3)nc1` [Compound 36, sodium 2-{5-[tert-butyl(methyl)sulfamoyl]pyridin-2-yl}-2,6-dihydro-4H-thieno[3,4-c]pyrazol-3-olate], the figures for the pEC50 in data set [1], in data set [2] and in data set [3] were 5.92, 5.70 and 5.80, respectively.

On to `O=c1c2c([nH]n1-c1ccc(S(=O)(=O)N3CCCCCC3)cn1)CSC2` [Compound 26, 2-[5-(azepan-1-ylsulfonyl)pyridin-2-yl]-1,2,4,6-tetrahydro-3H-thieno[3,4-c]pyrazol-3-one], for which the melting point is 236 °C. Besides, in data set [1], the pEC50 was 5.82. In data set [2], the negative logarithm of the EC50 (pEC50) is 5.89. The same compound gave a negative-log EC50 (pEC50) in data set [3] of 6.00.

`CCN(c1ccccc1)S(=O)(=O)c1ccc(-n2[nH]c3c(c2=O)CSC3)nc1` [Compound 9, N-ethyl-6-(3-oxo-4,6-dihydro-1H-thieno[3,4-c]pyrazol-2(3H)-yl)-N-phenylpyridine-3-sulfonamide] registered a melting point of 208 °C. Moreover, the pEC50 in data set [1] was 5.85. This compound also had a pEC50 in data set [2] of 6.18. In data set [3], this compound showed a pEC50 of 6.15.

Turning to `CCN(C(C)(C)C)S(=O)(=O)c1ccc(-n2nc3c(c2O)CSC3)nc1` [Compound 32, sodium 2-{5-[tert-butyl(ethyl)sulfamoyl]pyridin-2-yl}-2,6-dihydro-4H-thieno[3,4-c]pyrazol-3-olate], the pEC50 is 5.89 in data set [1], 5.49 in data set [2] and 5.59 in data set [3].

For the compound `CC(C)(C)OC(=O)c1ccc(-n2[nH]c3c(c2=O)CSC3)nc1` [Compound 30, tert-butyl 6-(3-oxo-4,6-dihydro-1H-thieno[3,4-c]pyrazol-2(3H)-yl)pyridine-3-carboxylate], the figures for the pEC50 in data set [1], in data set [2] and in data set [3] were 6.19, 5.74 and 5.82, respectively.

Source of the values: patent US8697731B2, “Derivatives of 2-pyridin-2-yl-pyrazol-3(2H)-one, preparation and therapeutic use thereof” (Sanofi, priority 2008, dated 2014).
